Results as given in ChEMBL document CHEMBL5252527, “An Update on Poly(ADP-ribose)polymerase-1 (PARP-1) Inhibitors: Opportunities and Challenges in Cancer Therapy” (J Med Chem, 2016).

How the values were obtained:
[1] = target: T1, Poly [ADP-ribose] polymerase 1 (Homo sapiens, UniProt P09874); test: Inhibition of PARP-1 (unknown origin)
[2] = target: T2, Poly [ADP-ribose] polymerase 2 (Homo sapiens, UniProt Q9UGN5); test: Inhibition of PARP-2 (unknown origin)
[3] = target: T1, Poly [ADP-ribose] polymerase 1; test: Inhibition of human PARP-1 using histone as substrate incubated for 16 hrs by ELISA assay
[4] = species on record: Homo sapiens; test: Selectivity index, ratio of IC50 of human PARP-1 to IC50 of human PARP-2
[5] = target: T1, Poly [ADP-ribose] polymerase 1; test: Inhibition of human PARP-1
[6] = target: Poly [ADP-ribose] polymerase 1 (Bos taurus, UniProt P18493); test: Inhibition of calf thymus PARP-1
Poly [ADP-ribose] polymerase 1 (Bos taurus, UniProt P18493), sequence (P18493 whole entry): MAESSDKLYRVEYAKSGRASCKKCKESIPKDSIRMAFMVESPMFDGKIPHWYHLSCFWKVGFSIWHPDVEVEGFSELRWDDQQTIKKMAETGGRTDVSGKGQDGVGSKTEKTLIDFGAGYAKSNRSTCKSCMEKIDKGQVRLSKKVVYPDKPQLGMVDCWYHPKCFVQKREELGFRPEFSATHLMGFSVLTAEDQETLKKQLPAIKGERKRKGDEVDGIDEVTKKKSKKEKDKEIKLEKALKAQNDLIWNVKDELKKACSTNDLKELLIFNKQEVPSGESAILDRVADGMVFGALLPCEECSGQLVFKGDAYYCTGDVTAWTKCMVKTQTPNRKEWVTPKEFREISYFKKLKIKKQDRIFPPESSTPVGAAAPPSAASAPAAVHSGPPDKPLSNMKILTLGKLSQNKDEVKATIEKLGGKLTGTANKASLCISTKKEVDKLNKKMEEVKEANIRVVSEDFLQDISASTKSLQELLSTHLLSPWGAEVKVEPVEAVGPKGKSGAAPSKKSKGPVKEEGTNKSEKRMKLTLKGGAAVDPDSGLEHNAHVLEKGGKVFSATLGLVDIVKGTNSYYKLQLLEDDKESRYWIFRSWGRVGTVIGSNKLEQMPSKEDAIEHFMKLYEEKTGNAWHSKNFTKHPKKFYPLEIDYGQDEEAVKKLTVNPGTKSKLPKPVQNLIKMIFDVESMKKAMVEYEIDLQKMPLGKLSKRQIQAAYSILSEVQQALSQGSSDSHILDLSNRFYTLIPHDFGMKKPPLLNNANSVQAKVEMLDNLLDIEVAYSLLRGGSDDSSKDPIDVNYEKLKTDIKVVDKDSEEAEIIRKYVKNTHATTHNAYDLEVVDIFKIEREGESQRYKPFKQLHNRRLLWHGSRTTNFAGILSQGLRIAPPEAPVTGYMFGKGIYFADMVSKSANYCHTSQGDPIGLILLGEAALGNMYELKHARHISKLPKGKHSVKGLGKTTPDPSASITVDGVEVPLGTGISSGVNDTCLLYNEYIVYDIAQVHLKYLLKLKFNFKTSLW

[7] = Inhibition of calf thymus […]; parameters: species or system Bos taurus
[8] = target: T2, Poly [ADP-ribose] polymerase 2; test: Inhibition of human PARP-2 incubated for 18 to 20 hrs by scintillation proximity assay
[9] = tested on: U-251; test: Inhibition of human PARP expressed in U-251 cells at 3 uM relative to control; format: cell-based
[10] = target: T1, Poly [ADP-ribose] polymerase 1; test: Inhibition of PARP-1 (unknown origin) assessed as inhibition constant
[11] = target: Poly [ADP-ribose] polymerase 1 (Mus musculus, UniProt P11103); test: Inhibition of mouse recombinant PARP-1 incubated for 60 mins
Poly [ADP-ribose] polymerase 1 (Mus musculus, UniProt P11103), sequence (P11103 whole entry): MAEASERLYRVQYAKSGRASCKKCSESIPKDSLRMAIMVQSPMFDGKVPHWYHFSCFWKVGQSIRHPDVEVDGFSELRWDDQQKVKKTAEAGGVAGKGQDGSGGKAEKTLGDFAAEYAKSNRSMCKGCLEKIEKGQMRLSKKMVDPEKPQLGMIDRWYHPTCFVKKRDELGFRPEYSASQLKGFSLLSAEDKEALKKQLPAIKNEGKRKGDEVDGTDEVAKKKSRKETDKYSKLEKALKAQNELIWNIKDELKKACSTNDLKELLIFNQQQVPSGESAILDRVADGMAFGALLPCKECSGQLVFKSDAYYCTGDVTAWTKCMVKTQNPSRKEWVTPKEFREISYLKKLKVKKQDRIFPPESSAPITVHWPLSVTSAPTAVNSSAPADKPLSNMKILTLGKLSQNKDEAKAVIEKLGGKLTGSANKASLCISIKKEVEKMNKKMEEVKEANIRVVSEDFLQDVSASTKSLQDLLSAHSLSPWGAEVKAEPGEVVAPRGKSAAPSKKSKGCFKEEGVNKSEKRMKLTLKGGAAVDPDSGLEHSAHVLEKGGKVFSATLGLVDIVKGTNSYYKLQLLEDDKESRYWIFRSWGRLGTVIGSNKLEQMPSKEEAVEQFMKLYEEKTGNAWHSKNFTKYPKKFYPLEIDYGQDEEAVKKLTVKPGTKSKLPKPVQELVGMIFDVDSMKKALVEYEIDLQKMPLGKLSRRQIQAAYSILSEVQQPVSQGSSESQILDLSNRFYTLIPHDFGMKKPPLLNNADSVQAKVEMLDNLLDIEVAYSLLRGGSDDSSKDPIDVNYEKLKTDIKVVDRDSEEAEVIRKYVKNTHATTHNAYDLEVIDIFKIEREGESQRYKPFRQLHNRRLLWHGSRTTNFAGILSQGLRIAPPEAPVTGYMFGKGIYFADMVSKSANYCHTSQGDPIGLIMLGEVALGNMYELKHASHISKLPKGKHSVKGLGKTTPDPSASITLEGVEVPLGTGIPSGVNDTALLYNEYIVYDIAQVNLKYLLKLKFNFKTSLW

[12] = Oral bioavailability in rat; format: ADME, organism-based; conditions: in vivo
[13] = Half life in rat; format: ADME; conditions: in vivo

T2 sequence (Q9UGN5 whole entry): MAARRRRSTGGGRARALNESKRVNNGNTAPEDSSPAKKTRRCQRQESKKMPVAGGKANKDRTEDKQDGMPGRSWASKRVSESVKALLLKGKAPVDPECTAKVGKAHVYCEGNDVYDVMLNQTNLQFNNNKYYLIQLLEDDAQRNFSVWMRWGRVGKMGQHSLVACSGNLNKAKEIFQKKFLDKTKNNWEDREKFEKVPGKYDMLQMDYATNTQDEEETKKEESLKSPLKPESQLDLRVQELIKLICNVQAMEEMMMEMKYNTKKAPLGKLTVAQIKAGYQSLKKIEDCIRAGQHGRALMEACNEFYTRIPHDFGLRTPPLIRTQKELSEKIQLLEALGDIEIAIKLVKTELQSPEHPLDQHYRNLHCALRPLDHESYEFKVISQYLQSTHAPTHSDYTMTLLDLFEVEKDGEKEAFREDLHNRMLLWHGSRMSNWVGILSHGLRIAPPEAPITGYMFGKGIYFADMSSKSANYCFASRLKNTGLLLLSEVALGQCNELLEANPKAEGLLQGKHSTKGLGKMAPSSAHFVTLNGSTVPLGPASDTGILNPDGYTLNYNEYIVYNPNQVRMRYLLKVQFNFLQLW
T1 sequence (P09874 whole entry): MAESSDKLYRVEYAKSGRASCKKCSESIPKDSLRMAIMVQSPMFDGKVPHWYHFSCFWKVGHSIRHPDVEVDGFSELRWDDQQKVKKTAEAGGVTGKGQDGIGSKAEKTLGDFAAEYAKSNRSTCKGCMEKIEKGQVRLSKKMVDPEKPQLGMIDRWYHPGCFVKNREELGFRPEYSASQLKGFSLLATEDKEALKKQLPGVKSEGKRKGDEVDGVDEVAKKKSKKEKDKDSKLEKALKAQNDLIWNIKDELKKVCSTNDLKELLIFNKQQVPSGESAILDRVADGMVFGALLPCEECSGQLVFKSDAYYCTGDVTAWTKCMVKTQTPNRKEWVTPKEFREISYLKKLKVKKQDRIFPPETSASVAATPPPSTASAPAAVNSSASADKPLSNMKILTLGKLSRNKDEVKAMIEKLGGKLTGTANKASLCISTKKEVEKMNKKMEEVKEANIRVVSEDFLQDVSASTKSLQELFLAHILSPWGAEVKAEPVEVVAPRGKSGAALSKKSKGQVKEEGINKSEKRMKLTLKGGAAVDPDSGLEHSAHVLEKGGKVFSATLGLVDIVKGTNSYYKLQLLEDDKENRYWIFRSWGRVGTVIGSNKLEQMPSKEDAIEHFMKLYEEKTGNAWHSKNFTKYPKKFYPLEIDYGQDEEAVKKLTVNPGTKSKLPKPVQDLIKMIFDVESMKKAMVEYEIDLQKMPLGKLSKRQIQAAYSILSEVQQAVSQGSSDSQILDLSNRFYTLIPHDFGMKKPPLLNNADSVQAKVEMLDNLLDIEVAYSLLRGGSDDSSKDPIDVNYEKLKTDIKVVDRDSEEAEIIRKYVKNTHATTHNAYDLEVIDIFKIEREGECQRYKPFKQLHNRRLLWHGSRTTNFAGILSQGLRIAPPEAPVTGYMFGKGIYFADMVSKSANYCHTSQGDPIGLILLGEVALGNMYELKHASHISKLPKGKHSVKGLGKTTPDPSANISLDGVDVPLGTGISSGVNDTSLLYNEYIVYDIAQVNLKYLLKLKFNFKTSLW

## COc1cccc2[nH]c3c4c(c5c(c3c12)C(=O)N(CN1CCN(C)CC1)C5=O)CCC4 [CEP-9722]
[1]
  IC50: 20 nM
[2]
  IC50: 6 nM

## CC(C)(C)[Si](C)(C)OCCCN1CCN(C(=O)c2cc(Cn3c(=O)[nH]c(=O)c4ccccc43)ccc2F)CC1=O
[3]
  IC50: 1.29 nM
[4]
  Ratio IC50: 8

## NC(=O)c1ccc(I)c([N+](=O)[O-])c1 [INIPARIB]
[5]
  IC50: 100000 nM

## Cc1cccc2c(=O)[nH]c(CCCN3CC=C(c4ccc(F)cc4)CC3)nc12
[6]
  IC50: 16 nM
[7]
  IC50: 167 nM

## Cn1cccc1/C=C1\C(=O)NC(=O)c2ccccc21
[8]
  IC50: 4000 nM

## C[C@]12CCCN1CC1=NNC(=O)c3cc(F)cc4[nH]c2c1c34 [PAMIPARIB]
[2]
  IC50: 0.11 nM

## O=c1[nH]nc2c3c(cccc13)Oc1ccc(CN3CCC(O)CC3)cc1-2 [E-7016]
[9]
  inhibition: 84%
[10]
  Ki: 50 nM

## O=C(Nc1cccc2c(=O)[nH]ccc12)c1ccccc1
[11]
  IC50: 1500 nM

## Cn1ncnc1[C@H]1c2n[nH]c(=O)c3cc(F)cc(c23)N[C@@H]1c1ccc(F)cc1 [TALAZOPARIB]
[12]
  bioavailability: > 40%
[13]
  t1/2: 40 h
